Data from patent publication US5071845A, “Benzoxazepine derivative” (Suntory Limited, priority 1988, dated 1991).
pIC50: −log10 of the molar value.

Target: T1, 5HT1A serotonin receptor (Rattus norvegicus, UniProt P19327)
T1 construct: To the cerebral cortex enucleated from a Wistarstrain male rat; from tissue; host or cells: cerebral cortex of male Wistar rat, washed membrane homogenate
T1 sequence (P19327 1-422): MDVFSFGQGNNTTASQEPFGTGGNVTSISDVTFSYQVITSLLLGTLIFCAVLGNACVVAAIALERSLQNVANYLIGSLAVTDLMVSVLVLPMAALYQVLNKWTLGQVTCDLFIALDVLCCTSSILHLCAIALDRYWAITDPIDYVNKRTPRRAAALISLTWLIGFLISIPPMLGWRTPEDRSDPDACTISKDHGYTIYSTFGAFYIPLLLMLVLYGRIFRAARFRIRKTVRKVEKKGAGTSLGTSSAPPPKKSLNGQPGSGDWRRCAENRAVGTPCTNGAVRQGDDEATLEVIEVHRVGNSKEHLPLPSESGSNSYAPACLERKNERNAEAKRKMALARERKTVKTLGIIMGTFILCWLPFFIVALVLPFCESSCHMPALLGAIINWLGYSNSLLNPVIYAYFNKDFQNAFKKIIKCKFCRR
Assay: Affinity for Serotonin Receptor ([3H]8-OH-DPAT binding, rat cerebral cortex homogenate)
Set-up: species or system rat (Wistar strain, male)
Conditions: [3H]8-OH-DPAT 0.4 nM, 25° C., 30 minutes
Procedure: The test was conducted according to the method of S. T. Perouka (J. Neurochem., 47, 529-540 (1986)).
To the cerebral cortex enucleated from a Wistarstrain male rat was added 50 mM Tris-HCl (pH 7.7) buffer and the mixture was homogenized by using Polytron®. The homogenate was centrifuged at 40,000 G for 10 minutes, and to the obtained precipitate was added the same buffer to effect homogenization, followed by incubation at 37° C. for 30 minutes. The suspension was centrifuged again at 40,000 G for 10 minutes, and to the obtained precipitate was added the same buffer to effect homogenization, followed by centrifugation at 40,000 G for 10 minutes. To the final obtained precipitate was added 50 mM Tris-HCl (10 μm pargyline, 4 mM CaCl2, 0.1% ascorbic acid) (pH 7.4) buffer, to effect homogenization, and the homogenate was used for the binding test. The (^3 H) 8-OH-DPAT used for the binding test was 0.4 nM, with a protein amount of 0.4 to 0.6 mg/ml, and a total amount of 1 ml. After incubation at 25° C. for 30 minutes, the mixture was filtered by a filtration method using a Whatman GF/B filter, and the filter was washed three times with 5 ml of the same buffer.
To the filter was added a scintillation cocktail, and a measurement was conducted by a liquid scintillation counter.

Compound	pIC50
COc1ccc2c(c1)C(=O)N(CCCCN1CCN(c3ncccn3)CC1)C(=O)CO2 [Example 58, 7-methoxy-4-(4-(4-(2-pyrimidinyl)piperazinyl)butyl)-2,3,4,5-tetrahydro-1,4-benzoxaze-3,5-dione]	8.30
O=C1COc2ccccc2C(=O)N1CCCCN1CCN(c2ncccc2Cl)CC1 [Example 48]	8.56
O=C1COc2cc(Cl)ccc2C(=O)N1CCCCN1CCN(c2ccccn2)CC1 [Example 59, 8-chloro-4-(4-(4-(2-pyridyl)piperazinyl)butyl)-2,3,4,5-tetrahydro-1,4-benzoxazepine-3,5-dione]	8.75
O=C1COc2ccccc2C(=O)N1CCCCN1CCN(c2ccccc2Cl)CC1 [Example 36, 4-(4-(4-(2-chlorophenyl)piperazinyl)butyl)-2,3,4,5-tetrahydro-1,4-benzoxazepine-3,5]	8.64
O=C1COc2cc(Cl)ccc2C(=O)N1CCCCN1CCN(c2ncccn2)CC1 [Example 64, 8-chloro-4-(4-(4-(2-pyrimidinyl)piperazinyl)butyl)-2,3,4,5-tetrahydro-1,4-benzoxazepine-3,5-dione]	8.39
COc1ccnc(N2CCN(CCCCN3C(=O)COc4ccccc4C3=O)CC2)n1 [Example 83, 4-(4-(4-(4-methoxy-2-pyrimidinyl)piperazinyl)butyl)-2,3,4,5-tetrahydro-1,4-benzoxazepine-3,5-dione]	8.38
COc1ccccc1N1CCN(CCCCN2CCOc3ccccc3C2=O)CC1 [Example 30]	8.58
Cc1ccc2c(c1)OCC(=O)N(CCCCN1CCN(c3ccccn3)CC1)C2=O [Example 65, 8-methyl-4-(4-(4-(2-pyridyl)piperazinyl)butyl)-2,3,4,5-tetrahydro-1,4-benzoxazepine-3,5-dione]	8.81
COc1ccc2c(c1)OCC(=O)N(CCCCN1CCN(c3ncccn3)CC1)C2=O [Example 72, 8-methoxy-4-(4-(4-(2-pyrimidinyl)piperazinyl)butyl)-2,3,4,5-tetrahydro-1,4-benzoxazepine-3,5-dione]	8.37
COc1ccc2c(c1)C(=O)N(CCCCN1CCN(c3ncccc3Cl)CC1)C(=O)CO2 [Example 54, 7-methoxy-4-(4-(4-(3-chloro-2-pyridyl)-piperazinyl)butyl)-2,3,4,5-tetrahydro-1,4-benzoxazepine-3,5-dione]	8.31
O=C1COc2ccccc2C(=O)N1CCCCN1CCN(c2ccc(F)cc2)CC1 [Example 43, 4-(4-(4-(4-fluorophenyl)piperazinyl)-butyl)-2,3,4,5-tetrahydro-1,4-benzoxazepine-3,5]	8.61
Cc1ccc2c(c1)OCC(=O)N(CCCCN1CCN(c3ncccn3)CC1)C2=O [Example 70, 8-methyl-4-(4-(4-(2-pyrimidinyl)piperazinyl)butyl)-2,3,4,5-tetrahydro-1,4-benzoxazepine-3,5-dione]	8.32
O=C1COc2ccccc2C(=O)N1CCCCN1CCN(c2cccc(Cl)c2)CC1 [Example 39]	8.85
O=C1COc2ccccc2C(=O)N1CCCCN1CCN(c2ncccn2)CC1 [Example 52, 4-(4-(4-(2-pyrimidinyl)piperazinyl)butyl)-2,3,4,5-tetrahydro-1,4-benzoxazepine-3,5-d]	8.43
O=C1c2ccccc2OCCN1CCCCN1CCN(c2ccccn2)CC1 [Example 27, 4-(4-(4-(2-pyridyl)piperazinyl)butyl)-2,3,4,5-tetrahydro-1,4-benzoxazepine-5-one]	8.21
